According to patent US20160166543A1 (priority 2014, published 2016):
Converted amounts (≈) assume the structure as drawn. Like-named read-outs stand apart in the source and are kept apart here.

Columns and labels:
[1] = in vivo, cited from earlier work
[2] = humans; cited from earlier work
physchem = format: physicochemical
Method: There are different types of cyclodextrins available. For the purpose of this patent application, the cyclodextrin can be one or more the following—alpha cyclodextrin (alpha CD), beta cyclodextrin (beta CD), gamma cyclodextrin (gamma CD), hydroxypropyl beta cyclodextrin (HPBCD), sulfobutyl ether beta cyclodextrin (SBEBCD), and randomly methylated beta cyclodextrin. […] The concentration of cyclodextrin in the samples ranged from 0 mg/mL to 12.5 mg/mL.

[3] = older adults, cited from earlier work
[4] = rat, in vivo, po; cited from earlier work

CN(C)CCOC(C)(c1ccccc1)c1ccccn1 (stereo not shown) [Doxylamine succinate]
apparent oral clearance ([1]; po): 217 mL/min
elimination half-life [1]: 10.1 h
mean Cmax (maximum blood concentration) [1]: 99 ng/mL
median lethal dose [2]: 50 to 500 mg/kg

COc1ccc2[nH]cc(CCNC(C)=O)c2c1 [Melatonin]
increase of solubility in water (physchem): ~60%
saturation solubility in water (physchem): 1750 µg/mL
solubility (physchem; water, thermodynamic from solid, saturation solubility in water): ~1750 µg/mL (≈ 7.53 mM)
Tmax ([3]; high dose (>2 mg)): 1.5 h
Tmax ([3]; low dose (<0.5 mg)): 1.3 h
LD50 [4]: over 3200 mg/kg
